Tested on: A673 NR0B1-luciferase reporter, viability-normalised luminescence
Experiment: NR0B1 reporter signal reduction in A673 cells – cell-based, luciferase luminescence, cherry-pick, EWS/Fli inhibitor project, dose response (AID 686920)

Q: With `CNC[C@H](CC1CCCCC1)NC[C@H](CO)NCCc1cccc(C(F)(F)F)c1` as the molecule, how does the AC35 read?
A: 13.7 µM

Q: For `O=C(C[C@H]1C[C@H]2c3cc(NS(=O)(=O)c4ccc(F)cc4)ccc3O[C@H]2[C@H](CO)O1)NCc1ccc(Oc2ccccc2)cc1`, which AC35 is on record?
A: 6.22 µM

Q: With `CC(C)CC(NC(=O)c1cccs1)c1nnc(SCc2ccc(Cl)c(Cl)c2)n1C` (stereo not given) as the molecule, how does the AC35 read?
A: 39.5 µM

Q: `Nc1nc(=S)c2[nH]cnc2[nH]1` was tested. Which AC35 did it give?
A: 2.5 µM

Q: With `COc1cccc(Sc2ccccc2/C=N/NC(N)=O)c1` as the molecule, how does the AC35 read?
A: 2.17 µM

Q: `C[C@H](CO)N1C[C@H](C)[C@H](CN(C)Cc2ccc(C(F)(F)F)cc2)Oc2ccc(NC(=O)CCCCCC(=O)Nc3ccccc3N)cc2CC1=O` was tested. Which AC35 did it give?
A: 6.04 µM

Q: With `COc1ccc(CCCNC(=O)C2Cc3c(-c4ccc5c(c4)OCO5)ccnc3O2)cc1` (stereo not given) as the molecule, how does the AC35 read?
A: 10.5 µM

Q: `Cc1cccc(/C=N/Nc2ccc3ccccc3n2)c1` was tested. Which AC35 did it give?
A: 1.6 µM

Q: How did the AC35 turn out when `COc1ccccc1C(CCNCc1ccc(N(C)C)cc1)c1ccc(OC(C)C)cc1` (stereo not given) was run?
A: 24.9 µM

Q: With `CC(C)(C)c1ccc(Oc2ccc(NC(=O)c3ccccc3C(=O)O)cn2)cc1` as the molecule, how does the AC35 read?
A: 5.78 µM

Q: Which AC35 does the source give for `c1ccc(Nc2nnc(-c3ccc4c(c3)OCO4)o2)cc1` here?
A: 3.06 µM

Q: How did the AC35 turn out when `O=C1NC(=O)N(Cc2ccccc2)C(=O)/C1=C\C=C\c1ccco1` was run?
A: 10.4 µM

Q: With `C[C@@H]1CN([C@@H](C)CO)C(=O)Cc2cc(NS(=O)(=O)c3cccs3)ccc2O[C@H]1CN(C)Cc1ccc(Cl)c(Cl)c1` as the molecule, how does the AC35 read?
A: 3.76 µM

Q: Which AC35 does the source give for `CCc1ccc(/C=C2\SC(=S)N(CCC(=O)Nc3cc(C)on3)C2=O)cc1` here?
A: 6.38 µM

Q: Which AC35 does the source give for `COc1cccc(-c2cc(NC=O)c3ncc(-c4ccc(C(C)=O)cc4)n3c2)c1` here?
A: 6.25 µM

Q: `Cc1ccc2c(c1)C(=O)N1[C@H]3c4cc(Br)ccc4OC[C@@H]3[C@H](c3ccccc3)[C@]1(C)C(=O)N2` was tested. Which AC35 did it give?
A: 13.7 µM

Q: For `CCOc1ccc(-c2cc(CCCC(=O)N3CCN(c4ccc(OC)cc4)CC3)no2)cc1`, which AC35 is on record?
A: 27.6 µM

Q: For `CCCN1C/C(=C/c2ccc3c(c2)OCO3)C(=O)/C(=C/c2ccc3c(c2)OCO3)C1`, which AC35 is on record?
A: 3.4 µM

Q: For `CC(=O)N1CCCC(c2cc(C(=O)Nc3ccccc3)no2)C1` (stereo not given), which AC35 is on record?
A: 2.06 µM

Q: For `Cc1cc(C(=O)Nc2ccc3c(c2)C(=O)N(C)[C@@H]2CC[C@@H](CC(=O)NCc4ccc(-c5ccccc5)cc4)O[C@H]2CO3)no1`, which AC35 is on record?
A: 6.29 µM

Q: `Cc1nn(-c2ccc(F)cc2)c2nc(N)c(C#N)c(-c3ccc(O)c(O)c3)c12` was tested. Which AC35 did it give?
A: 22.2 µM

Q: How did the AC35 turn out when `C[C@H]1CN([C@@H](C)CO)C(=O)Cc2cc(NC(=O)CCCCCC(=O)Nc3ccccc3N)ccc2O[C@H]1CN(C)Cc1ccc(Cl)c(Cl)c1` was run?
A: 4.68 µM

Q: How did the AC35 turn out when `C[C@@H]1CN([C@@H](C)CO)S(=O)(=O)c2ccc(C#Cc3ccncc3)cc2O[C@H]1CN(C)S(=O)(=O)c1ccccc1` was run?
A: 15.2 µM

Q: For `Cc1ccc(C(C(=O)NCc2ccco2)N(C(=O)CNC(=O)c2cccs2)c2c(C)cc(C)cc2C)cc1` (stereo not given), which AC35 is on record?
A: 42 µM

Q: With `COc1ccc(/C=C2/NC(=O)N(CC(=O)Nc3cccc(C)c3)C2=O)cc1O` as the molecule, how does the AC35 read?
A: 9.76 µM

Q: `O=C(CCc1ccccc1)NC(c1cccs1)c1cc(Cl)c2cccnc2c1O` (stereo not given) was tested. Which AC35 did it give?
A: 5.42 µM

Q: `CC(C)(C)C(=O)Nc1ccc(N=Nc2ccccc2)cc1` was tested. Which AC35 did it give?
A: 10.7 µM

Q: `CCc1ccc(/C=C2\SC(=S)N(CCCC(=O)Nc3cc(C)on3)C2=O)cc1` was tested. Which AC35 did it give?
A: 0.947 µM

Q: How did the AC35 turn out when `CC(C)N1C/C(=C/c2ccsc2)C(=O)/C(=C/c2ccsc2)C1` was run?
A: 5.52 µM

Q: How did the AC35 turn out when `C=C(C(=O)c1ccccc1)C(C(=C)C(=O)c1ccccc1)c1ccc(OC)cc1` was run?
A: 4.37 µM

Q: Which AC35 does the source give for `Cc1ccc(S(=O)(=O)N(C)C[C@@H]2Oc3ccc(NC(=O)CCCCCC(=O)Nc4ccccc4N)cc3CC(=O)N([C@@H](C)CO)C[C@@H]2C)cc1` here?
A: 11 µM

Q: With `Cc1cccc(CN2C(=O)/C(=C\c3ccc(C(=O)NCCCN4CCN(C)CC4)cc3)Oc3ccccc32)c1` as the molecule, how does the AC35 read?
A: 11.6 µM

Q: `O=C(CN1C(=O)c2ccccc2S1(=O)=O)c1ccc(F)cc1` was tested. Which AC35 did it give?
A: 3.98 µM

Q: For `C=CCOc1ccccc1C(=O)/C=C1/C(=O)Nc2ccccc21`, which AC35 is on record?
A: 14.5 µM

Q: `COc1ccc(NC(=O)N2CCCCN3[C@H](CO)[C@H](c4ccc(C#CCC(C)C)cc4)[C@H]3C2)cc1` was tested. Which AC35 did it give?
A: 9.98 µM

Q: `C[C@@H]1CN([C@H](C)CO)C(=O)c2cc(NC(=O)c3ccccc3)ccc2O[C@@H](C)CCCCO[C@H]1CN(C)C(=O)Nc1cccc2ccccc12` was tested. Which AC35 did it give?
A: 2.07 µM

Q: With `C[C@@H]1CN([C@@H](C)CO)C(=O)c2cc(NC(=O)c3ccccc3)ccc2O[C@@H](C)CCCCO[C@H]1CN(C)C(=O)Nc1cccc2ccccc12` as the molecule, how does the AC35 read?
A: 0.873 µM

Q: Which AC35 does the source give for `CCCN1C(=O)/C(=C/c2nc3ccccc3c(=O)[nH]2)c2ccccc21` here?
A: 32.5 µM

Q: `C[C@H]1CN([C@@H](C)CO)C(=O)c2cccc(NC(=O)c3ccc(-c4nccs4)cc3)c2O[C@@H]1CN(C)Cc1ccc(C(=O)Nc2ccccc2N)cc1` was tested. Which AC35 did it give?
A: 14.1 µM

Q: With `COc1cccc(CN2CCC2(C)C(=O)Nc2cccc3cccnc23)c1F` (stereo not given) as the molecule, how does the AC35 read?
A: 14.7 µM

Q: With `OCC1OC(n2cnc3c(NCc4ccco4)ncnc32)C(O)C1O` (stereo not given) as the molecule, how does the AC35 read?
A: 2.81 µM

Q: With `CCN1CCN(/C=N/c2nc3c(s2)CCCC3)CC1` as the molecule, how does the AC35 read?
A: 7.97 µM

Q: How did the AC35 turn out when `O=C(Nc1ccc(Br)cc1)c1ccc(F)c(S(=O)(=O)N2CCN(c3ccccn3)CC2)c1` was run?
A: 7.79 µM

Q: How did the AC35 turn out when `CN(C)c1ncnc2c1ccn2C1OC(CO)C(O)C1O` (stereo not given) was run?
A: 3.44 µM

Q: How did the AC35 turn out when `C[C@@H]1O[C@@H](O[C@H]2C[C@@H](O)[C@]3(CO)[C@@H]4C(CC[C@]3(O)C2)[C@@]2(O)CC[C@H](C3COC(=O)C3)[C@@]2(C)C[C@H]4O)[C@H](O)[C@H](O)[C@H]1O` (stereo not given in full) was run?
A: 1.97 µM
